Read-outs that look alike come from different tables or passages of the source.

Holding throughout (format): cell-based
In assay [1] the test system is E. coli. Briefly: Antibiotic resistance of E. coli isolates from the field trial (Group Health Urgent Care). The settings on record: for overall resistance level: Field trial isolates; for Resistance rate in GH UC E. coli: field trial, Group Health Urgent Care. The protocol:
The disclosed test kit and process was conducted on urinalysis-positive urine samples on-site at the HMO urgent care clinical laboratory. All urine samples obtained at Urgent Care facility were tested by the 7-SNP-based CLT(clonotyping) test and by a standard E. coli culturing test.
In total, 750 urinalysis-positive samples from the HMO urgent care lab were processed in CLT test and standard culturing test.
The E. coli clonotypes identified in the field study (out of 750 samples, see above) were compared to a reference collection of E. coli to (1) compare the clonotypes distribution, (2) compare the overall resistance profile, and (3) use the reference collection to predict if antibiotics can or cannot be allowed for use in each case in the field study (as a Lookup Table). Further, the prediction from (3) was compared to actual resistance of individual isolates and to clinical data regarding the prescription of antibiotics in each case. From this we can see if the implementation of the CLT test would improve the choice of antibacterial therapy.
For clone-based prediction of bacterial resistance of field study isolates we used a 15% resistance as a cutoff for rejection of an antibiotic.

In assay [2] the test system is E. coli. Briefly: Antibiotic resistance of the HMO reference collection of E. coli (Lookup Table). To be noted: Reference set isolates (1227, 2010-2013). The protocol:
Both septatypes/clonotypes and antimicrobial profiles were identified.
In total, 1227 E. coli isolated from the HMO (Group Health) clinical lab in 2010-2013 were analyzed. All had their clonotype type determined and resistance to antibiotics tested. Septatypes were deduced from CH types (clonotypes). Red indicates resistance >30%. Yellow: more than 15% but less than 30%. Green: less than 15%.

A further assay deals with Escherichia coli. The assay can be described thus: Disk diffusion susceptibility of the reference set of clinical E. coli isolates split by 7-SNP typing. The settings on record: for prevalence of resistance: total E. coli study population. As to the method: This example illustrates setting up a reference database consisting of 2,559 random single-patient clinical E. coli isolates of primarily extra-intestinal origin, at eight international clinical microbiology laboratories. […] Conventional MLST (multi-locus sequence typing) was performed either in full using the standard scheme of 7 MLST loci (adk, fumC, gyrB, icd, mdh, purA, and recA) (Wirth et al., 2006. Sex and virulence in Escherichia coli: an evolutionary perspective. Mol, Microbiol, 60:1136-1151.) or as a combination of partial MLST and fumC/fimH typing, as described previously (Tchesnokova et al. 2013. Predictive diagnostics for Escherichia coli infections based on the clonal association of antimicrobial resistance and clinical outcome. J. Clin. Microbiol. 51:2991-2999). Some ST complexes, as identified by the eBURST v3 software, were defined operationally as a single ‘ST’ and were designated based on the ST identified as the cluster's founder (see Table 5) (Feil et al. 2004. eBURST: inferring patterns of evolutionary descent among clusters of related bacterial genotypes from multilocus sequence typing data. J. Bacteriol. 186:1518-1530).
Susceptibility to seven antibiotics was determined using a standardized disk diffusion method according to Clinical and Laboratory Standards Institute guidelines.
For orientation: Agar diffusion results depend on both activity and mobility in agar.

Assay [3] has as its system E. coli. The assay can be described thus: CH clonotypes correlated with antibiotic susceptibility profiles of urine E. coli isolates. An excerpt: This example illustrates a high-resolution fumC/fimH (CH) clonotyping scheme for E. coli based on sequence variations within these highly-variable omnipresent genes for fumarase and fimbrial adhesin of E. coli, respectively. We correlated CH clonotypes with antibiotic susceptibility profiles among 1,600 urine E. coli isolates from clinical microbiology laboratories in Seattle (Group Health, UW, Harborview, and Children's Hospitals), Minneapolis (VA Medical Center), and Munster, Germany (University Clinic).
We next determined how knowledge of cumulative clonotype vs. overall (species) antibiogram could reduce potential ‘drug-bug’ mismatches during empirical antibiotic selection. We used the IDSA-recommended 80% susceptibility cutoff level to allow the use of specific antibiotic for each clonotype.

In assay [4] the test system is E. coli. As to the method:
This example illustrates implementation of clonal testing in a healthcare community microbiology laboratory. We assessed the presence of E. coli sub-strains ST131 and ST69 (n=619) E. coli positive cultures. […] The tests were conducted to identify ST69 of ST131 genes specific to each clonotype on bacterial DNA isolated from patient urine specimens using RT-PCR instrumentation.

For `CC1(C)S[C@@H]2[C@H](NC(=O)[C@H](N)c3ccccc3)C(=O)N2[C@H]1C(=O)O` [Ampicillin, ampicillin], the overall resistance level came out at 55.6 with E. coli [1] and 44.7 in the assay on E. coli [2].

In the case of `Cc1nnc(SCC2=C(C(=O)O)N3C(=O)[C@@H](NC(=O)Cn4cnnn4)[C@H]3SC2)s1` [cefazolin], the prevalence of resistance in the assay on Escherichia coli was 23%. The results for the overall resistance level in the assay on E. coli [1] and in the assay on E. coli [2] were 12.2 and 15.5, respectively. The molecule further had a Total resistant in the assay on E. coli [3] (1,600 urine E. coli isolates) of 19.7%. Besides, in the assay on E. coli [3] (isolates of clonotypes allowed for treatment), the “% Resistant among Allowed” value was 10.7%. The “% Resistant among Rejected” value with E. coli [3] (isolates of clonotypes rejected for treatment) amounted to 32.0%.

Regarding `CO/N=C(\C(=O)N[C@@H]1C(=O)N2C(C(=O)O)=C(CSc3nc(=O)c(=O)[nH]n3C)CS[C@H]12)c1csc(N)n1` [ceftriaxone], the prevalence of resistance in the assay on Escherichia coli worked out at 9%. In addition, the overall resistance level in the assay with E. coli [1] is on record as 4.8; in the assay on E. coli [2] it was 3.7.

For the molecule `O=C1CN(/N=C/c2ccc([N+](=O)[O-])o2)C(=O)N1` [nitrofurantoin], in the assay on Escherichia coli, the prevalence of resistance was 11%. In the assay with E. coli [1], the overall resistance level came to 2.9 and the “Resistance rate in GH UC E. coli” value was 2.9%. The same molecule returned an overall resistance level in the assay with E. coli [2] of 1.3.

As for amoxicillin/clavulanate, the prevalence of resistance in the assay on Escherichia coli was 28%. In addition, in the assay on E. coli [1], the overall resistance level is on record as 21.2 and the “Resistance rate in GH UC E. coli” value is on record as 25.6%. The overall resistance level in the assay on E. coli [2] stood at 15.4.

For trimethoprim/sulfamethoxazole, the figures for the resistance in words result in the assay on Escherichia coli (septatype 261 (ST69)), with Escherichia coli (septatype 560 (ST131-H41)) and with Escherichia coli (septatype 561 (ST131-H30)) were “highly susceptible”, “highly resistant” and “highly resistant”, respectively. Further, the prevalence of resistance in the assay with Escherichia coli turned out to be 28%. The resistant entry in the assay with E. coli [4] (clonotype ST69) and with E. coli [4] (clonotype ST131) was “greater than 40%” each time. Also, the Resistance in the assay with E. coli [4] (study group, n=619 E. coli positive cultures) was 15%. Moreover, the results for the overall resistance level in the assay with E. coli [1] and in the assay on E. coli [2] were 25.8 and 21.4, respectively. Moreover, the “Resistance rate in GH UC E. coli” value with E. coli [1] is 25.7%.

Source of the values: US20160251702A1, “Process and Kit for Predicting Antibiotic Resistance and Susceptibility of Bacteria” (priority 2015, published 2016).
